For the assay, the target named is T1, BCAT1 (branched-chain amino acid transaminase 1) (Homo sapiens, UniProt P54687).
T1 construct: recombinant human BCAT1 Protein (Sino Biological, #ME16FE2265)
T1 sequence (P54687 1-386): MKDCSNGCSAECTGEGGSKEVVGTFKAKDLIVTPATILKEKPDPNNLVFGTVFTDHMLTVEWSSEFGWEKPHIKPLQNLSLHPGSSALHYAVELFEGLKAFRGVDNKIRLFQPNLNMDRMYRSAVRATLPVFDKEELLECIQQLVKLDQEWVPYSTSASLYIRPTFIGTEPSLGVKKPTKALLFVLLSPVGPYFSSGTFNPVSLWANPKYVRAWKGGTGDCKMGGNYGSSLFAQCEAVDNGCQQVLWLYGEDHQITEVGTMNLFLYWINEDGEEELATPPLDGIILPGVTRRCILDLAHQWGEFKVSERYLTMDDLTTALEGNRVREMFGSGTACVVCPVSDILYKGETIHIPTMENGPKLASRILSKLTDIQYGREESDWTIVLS
Briefly: coupled fluorescence (resazurin) enzyme activity assay with purified recombinant BCAT1; also CETSA in […] cells. In kind it is biochemical. (In general: Resazurin is reduced to fluorescent resorufin, in cell work by metabolically active cells.)

As to `NCC1(CC(=O)O)CC2CCC1C2` (racemic) [WQQ-345], the IC50 (usually the concentration at which inhibition is half-maximal) was 10.8 mM.

These data come from article PMC11324870, “Branched-chain amino acid transaminase 1 confers EGFR-TKI resistance through epigenetic glycolytic activation” (Signal Transduction and Targeted Therapy, 2024).
